# Measurements taken from US10307383B2, “Cosmetic composition for preventing or ameliorating hypersensitive skin comprising cedrol or derivatives thereof, or pharmaceutically acceptable salts thereof” (University of Seoul Industry Cooperation Foundation, priority 2017, dated 2019).
# Experiments:
# [1] = system: psoriasis induced mice (imiquimod); assay: Keratosis reduction effect in the psoriasis induced mice (PASI); type: in vivo, Balb/c mouse; conditions: for keratosis mean point (PASI): day 7, 100 mg/kg oral once a day, IMQ applied, IMQ alone 3.8
# Procedure: (§1) To investigate the delayed effect of cedrol, cedryl acetate, and alpha-cedrene on the development of psoriasis, total 5 groups of mice were prepared (8 mice/group). First, the hair of the entire back of the 8-week-old male Balb/c mouse whose immune system was weakened was removed by using a hair clipper (Kimlaube Hair pen 325,327, Rikei, Korea). In the middle of the shaved back of the mouse, 2 mg of imiquimod (3M Health Care Limited, England) was applied in the area of 2 cm×1.5 cm and also 1,125 mg of imiquimod was applied on the right ear of the mouse every day once a day to induce psoriasis.
# (§2) The mice prepared above were divided into the distilled water treated group (IMQ), the cedrol treated group (C), the cedryl acetate treated group (CA), and the alpha-cedrene treated group (CE). At this time, the mice were orally treated with distilled water at the concentration of 200 μl/mouse and cedrol or its derivatives at the concentration of 200 μl/mouse (100 mg/kg). The day when distilled water or the compound administration started was recorded as day 0 and the administration was performed once a day for a week, during which photo-recording was performed every day (FIGS. 2A˜2D). In the meantime, instead of applying imiquimod, 40 mg of vaseline was applied on the back of the control group (CONT) and 22.5 mg of vaseline was applied on the right ear of the control group. And the control group was orally administered with distilled water (200 μl/mouse).
# Then, the psoriasis area severity index (PASI) was calculated to confirm the reduction effect of the compounds on keratosis. Keratosis is a symptom of psoriasis. The application of IMQ can induce keratosis.
# [2] = system: psoriasis induced mice (imiquimod); assay: Skin thickness of the psoriasis induced mice (hematoxylin and eosin staining); type: in vivo, Balb/c mouse; conditions: day 7, 100 mg/kg oral; for skin thickness: IMQ applied, control 1,045, IMQ alone 1,181; for skin thickness, % inhibition: versus IMQ alone
# Procedure: as §1, §2
# The skin of the psoriasis induced mice orally administered with cedrol, cedryl acetate, and alpha-cedrene of Example <2-1> was stained with hematoxyline and eosine in order to compare the skin thickness.
# Particularly, the psoriasis induced mice of Example <2-1> were sacrificed with CO2, from which 1 cm×1 cm portions of the back surface were obtained and placed in PBS. The tissues washed with PBS were loaded in 10% formalin, followed by fixing at room temperature for a day. The fixed tissues were washed with PBS once, followed by dehydration with 25% methanol, 50% methanol, 75% methanol, and 100% methanol for 30 minutes each. Further dehydration of those tissues was additionally performed with 100% ethanol twice for 30 minutes each; with the mixed solution comprising ethanol and xylene (1:1) for 30 minutes, and with 100% xylene twice for 30 minutes each. 4 hours before washing, the modular tissue embedding center (LEICA EG 1150H, Leica, Germany) was turned on and paraplast plus (Sigma Aldrich, Korea) was melted at 60° C., followed by washing the paraffin. The tissues were loaded in a bottle, to which the melted paraffin was poured in, followed by washing in a 60° C. warm chamber twice for one hour each. The xylene-free tissues were placed in the paraffin solution, followed by reaction in the warm chamber for a day. The tissue sections were then placed on a Peel-A-Way embedding mold (Polysciences, Taiwan) and the paraffin solution was filled to half of the mold. The tissue sections were placed on top of the Peel-A-Way embedding mold, followed by fixing. An embedding ring (Thomas Scientific, USA) was placed on the mold, which was treated with the paraffin solution to solidify the mold and the ring at 4° C. for 3 hours, followed by reaction at 4° C. for a day. The embedded tissues can be semipermanently stored at 4° C. The embedded tissues were cut by using a semi-motorized rotary microtome (LEICA RM2145 Microtome, Leica, Germany), which were suspended in a 37° C. water bath to spread the paraffin wrinkles. The straightened wrinkles were collected by using a micro silane coating slide (Muto Pure Chemicals, Japan), which were dried at 37° C. for a day. When the tissues were completely dried, they were treated with xylene twice for 5 minutes each in order to eliminate the paraffin remaining in the tissues. The tissues were further washed with the mixed solution comprising ethanol and xylene (1:1), 100% ethanol, 100% methanol, 75% methanol, and 50% methanol for 2 minutes each to stain the tissues easily. […]
# [3] = system: psoriasis induced mice (imiquimod); assay: Skin pain reduction effect in the psoriasis induced mice (back pinch, mice counted); type: in vivo, Balb/c mouse; conditions: for number of mice showing skin pain: IMQ applied
# Procedure: as §1, §2
# When the back of the psoriasis induced mice orally administered with cedrol, cedryl acetate, and alpha-cedrene of Example <2-1> was pinched, those mice who sound painfully with strong rejection were counted. Skin pain is a symptom of psoriasis, and when IMQ is applied, skin pain becomes stronger as time goes by.
# IL-17A expression = assay: IL-17A inhibition assay in IL-17 luciferase-(LUCPorter) stable reporter cell line; conditions: for Inhibition of IL-17A expression (%) Experiment-2 / Inhibition of IL-17A expression (%) Experiment-3 / Inhibition of IL-17A expression (%) Experiment-1: 6 hours; for expression of IL-17A (luciferase units): control group 2,582 units; for suppression of the expression of IL-17A (in words): 10, 100, or 1,000 μg/ml; for inhibition at 10 µg/mL / inhibition at 100 µg/mL / inhibition at 1000 µg/mL / IC50: Homo sapiens; for inhibition at 10 µg/mL / inhibition at 100 µg/mL / inhibition at 1000 µg/mL: read-out: Average Inhibition (%); for IC50: read-out: IC50 to inhibit the IL-17A expression by 50%
# [4] = system: psoriasis induced mice (imiquimod); assay: Recovery effect on skin flair of the psoriasis induced mice after termination of imiquimod (PASI); type: in vivo, Balb/c mouse; conditions: for PASI reflecting skin flair: day 8 (imiquimod application stopped), 100 mg/kg oral; for skin flair disappearance (in words): on day 16, 100 mg/kg oral after termination of imiquimod
# Procedure: Imiquimod was applied to the psoriasis induced mice which had developed psoriasis for a week in Example <2-1>. The application was stopped 8 days after the application began. The groups CON and IMQ were treated with distilled water, the group C was treated with cedrol, the group CA was treated with cedryl acetate, the group CE was treated with alpha-cedrene alone at the concentration of 100 mg/kg in 200 μl, every day via oral-administration. Day 8 was the day the imiquimod application was stopped, since then the compounds were administered for 1 week once a day, during which photo-recording was performed (FIGS. 13A˜13D).
# Then, the psoriasis area severity index (Psoriasis Area Severity Index, PASI) was calculated, based on which the recovery effect on keratosis was evaluated.
# [5] = system: psoriasis induced mice (imiquimod); assay: Skin wrinkle reduction effect in the psoriasis induced mice; type: in vivo, Balb/c mouse; conditions: for number of mice showing skin wrinkles: IMQ applied, 8 mice/group
# Procedure: as §1, §2
# The psoriasis induced mice orally administered with cedrol, cedryl acetate, and alpha-cedrene of Example <2-1> were observed by the naked eye, and the number of mice showing skin wrinkles was counted. Skin wrinkle is a symptom of psoriasis, and when IMQ is applied, skin keratinization increases and accordingly skin wrinkles are formed as time goes by.
# [6] = day 7, 100 mg/kg oral, IMQ alone 3
SMILES,keratosis mean point (PASI) [1] [point],skin thickness [2] [μm],"skin thickness, % inhibition [2] [% inhibition]","expression of IL-17A, % by the control (IL-17A expression; 10 μg/ml) [% by the control]",Inhibition of IL-17A expression (%) Experiment-2 (IL-17A expression; 10 μg/ml) [%],Inhibition of IL-17A expression (%) Experiment-3 (IL-17A expression; 10 μg/ml) [%],expression of IL-17A (luciferase units) (IL-17A expression; 10 μg/ml),"expression of IL-17A, % by the control (IL-17A expression; 100 μg/ml) [% by the control]",Inhibition of IL-17A expression (%) Experiment-2 (IL-17A expression; 100 μg/ml) [%],Inhibition of IL-17A expression (%) Experiment-3 (IL-17A expression; 100 μg/ml) [%],expression of IL-17A (luciferase units) (IL-17A expression; 100 μg/ml),"expression of IL-17A, % by the control (IL-17A expression; 1,000 μg/ml) [% by the control]",Inhibition of IL-17A expression (%) Experiment-2 (IL-17A expression; 1000 μg/ml) [%],Inhibition of IL-17A expression (%) Experiment-3 (IL-17A expression; 1000 μg/ml) [%],"expression of IL-17A (luciferase units) (IL-17A expression; 1,000 μg/ml)",suppression of the expression of IL-17A (in words) (IL-17A expression),inhibition at 10 µg/mL (IL-17A expression) [%],inhibition at 100 µg/mL (IL-17A expression) [%],inhibition at 1000 µg/mL (IL-17A expression) [%],IC50 (IL-17A expression) [µg/mL],also measured
"CC(=O)O[C@]1(C)CC[C@@]23C[C@@H]1C(C)(C)[C@@H]2CC[C@H]3C [cedryl acetate, Cedryl acetate]",3.08,999,15.3,77,15,23,"1,994±304 units",64,27,36,"1,648±138 units",10,74,90,257±6 units,dose-dependently,19,31.5,82,608,"number of mice showing skin pain ([3]; day 6, 100 mg/kg oral, 8 mice/group): one; number of mice showing skin pain ([3]; day 7, 100 mg/kg oral, 8 mice/group, IMQ alone 5): no mice; IL-17A expression inhibition activity, comparison in words (IL-17A expression; order by IC50 of Table 3): strongest IL-17A expression inhibition activity; PASI reflecting skin flair [4]: 4.0±0.0 point; number of mice showing skin wrinkles ([5]; day 5, 100 mg/kg oral): one; number of mice showing skin wrinkles [5, 6]: one"
"C[C@@H]1CC[C@H]2C(C)(C)[C@H]3C[C@@]12CC[C@@]3(C)O [cedrol, Cedrol]",3.00,954,19.2,67,0,33,"1,718±174 units",57,14,43,"1,460±124 units",28,59,72,715±45 units,dose-dependently,19,26,69,726,"number of mice showing skin pain ([3]; day 4, 100 mg/kg oral, 8 mice/group): one; number of mice showing skin pain ([3]; day 5, 100 mg/kg oral, 8 mice/group): no mice; Inhibition of IL-17A expression (%) Experiment-1 (IL-17A expression; 10 μg/ml): 24%; Inhibition of IL-17A expression (%) Experiment-1 (IL-17A expression; 100 μg/ml): 21%; Inhibition of IL-17A expression (%) Experiment-1 (IL-17A expression; 1000 μg/ml): 76%; skin flair recovery effect, comparison in words ([4]; 100 mg/kg oral after termination of imiquimod): strongest recovery effect; PASI reflecting skin flair [4]: 3.0±0.6 point; skin flair disappearance (in words) [4]: skin flair of all mice disappeared; number of mice showing skin wrinkles ([5]; day 5, 100 mg/kg oral): one; number of mice showing skin wrinkles [5, 6]: 2 mice"
"CC1=CC[C@@]23C[C@@H]1C(C)(C)[C@@H]2CC[C@H]3C [alpha-cedrene, Alpha-cedrene]",2.66,954,19.2,79,3,21,"2,042±114 units",68,11,32,"1,757±310 units",65,23,35,"1,688±64 units",dose-dependently,10,21.3,31.3,1510,"keratosis reduction effect, comparison in words ([1]; 100 mg/kg oral, 7 days): strongest reduction effect; skin pain reduction effect, comparison in words ([3]; 100 mg/kg oral, 7 days): strongest reduction effect; number of mice showing skin pain ([3]; during the 7 day observation period, 100 mg/kg oral): no mice; Inhibition of IL-17A expression (%) Experiment-1 (IL-17A expression; 10 μg/ml): 6%; Inhibition of IL-17A expression (%) Experiment-1 (IL-17A expression; 100 μg/ml): 21%; Inhibition of IL-17A expression (%) Experiment-1 (IL-17A expression; 1000 μg/ml): 36%; PASI reflecting skin flair [4]: 4.0±1.0 point; skin flair disappearance (in words) [4]: skin flair of all mice disappeared; skin wrinkle reduction effect, comparison in words ([5]; 100 mg/kg oral, 7 days): strongest reduction effect; number of mice showing skin wrinkles ([5]; day 6, 100 mg/kg oral): one; number of mice showing skin wrinkles [5, 6]: one"
